Earlier results on two compounds are cited in patent US20240285640A1, “COMBINATION THERAPY FOR TREATING PIK3CA-MUTATED CANCER” (ADLAI NORTYE BIOPHARMA CO., LTD., priority 2020, published 2024).

Series [1] relates to breast cancer caused by PI3K/PIK3CA mutations. The conditions noted are these: patients; Campone M et al. 2018.
In series [2] the test system is immunosuppressive cells in the tumor microenvironment. The note with it: preclinical studies; by inhibiting the PGE2/EP-4 signaling pathway.
Series [3] deals with advanced solid tumors. The conditions noted are these: phase I FIH, a variety of advanced solid tumors.
For series [4], the system named is colorectal cancer. The note with it: combined with radiotherapy and chemotherapy; Wyrwicz et al., ESMO2019.

For the compound `Nc1cc(C(F)(F)F)c(-c2cc(N3CCOCC3)nc(N3CCOCC3)n2)cn1` [AN2025, Buparlisib], the clinical efficacy entry in series [1] is given as “effective”.
Take `C[C@H](NC(=O)c1c(C(F)F)nn(C)c1Oc1cccc(C(F)(F)F)c1)c1ccc(C(=O)O)cc1` [AN0025]: the “reduction of immunosuppressive cells in the tumor microenvironment” value in series [2] is on record as “effectively reduce”. Also, the “clinical effect as single drug” value in series [3] is reported as “certain single-drug effect”. Moreover, in series [4], the clinical efficacy result is “strong clinical efficacy”.
